Experimental data published in US9877918B2, “Long-lasting controlled-release liposome composition and method for producing same” (TERUMO KABUSHIKI KAISHA, priority 2011, dated 2018).
Counter-ions that a name gives are not always drawn.

Experiment: Bupivacaine hydrochloride retention in the administration site after subcutaneous administration
Format: in vivo
Details: rat, SC 3.5 mg/kg, four hours after the administration
Experimental: (6) Concentration of Bupivacaine Hydrochloride in Tissue (mg/mL): Sampled tissue was treated, and, for a supernatant obtained finally by centrifugation, absorbance at 210 nm was determined by high performance liquid chromatography using a UV-visible absorptiometer, to thereby measure the concentration of bupivacaine hydrochloride in the tissue.
The bupivacaine hydrochloride liposome preparation prepared in Preparation Example 16 and bupivacaine hydrochloride used alone were subjected to a pharmacokinetic test. The liposome preparation and bupivacaine hydrochloride used alone were administered subcutaneously into a back part of a rat in respective doses as set forth in Table 11 while the doses are set as the amount of bupivacaine hydrochloride. After the lapse of 1, 24, 72, 120, and 168 hours from the administration of the bupivacaine hydrochloride liposome composition, and after the lapse of 0.5, 4, and 24 hours from the administration of bupivacaine hydrochloride used alone, a subcutaneous tissue of the back part in the administration site was sampled and subjected to a homogenizing treatment. […]

- retention rate in the administration site: below 1%
Structure (SMILES): CCCCN1CCCCC1C(=O)Nc1c(C)cccc1C (stereo not shown) [bupivacaine hydrochloride used alone, Bupivacaine Hydrochloride]
